Test results published in ChEMBL document CHEMBL2321830 (J Med Chem, 2013).
Positions count from the first letter of the chain named.

Assays:
[1] = target: T1, Aldo-keto reductase family 1 member C3 (Homo sapiens, UniProt P42330); experiment: Inhibition of human recombinant AKR1C3-mediated NADP+-dependent oxidation of S-(+)-1,2,3,4-tetrahydro-1-naphthol
T1 sequence (P42330 whole entry): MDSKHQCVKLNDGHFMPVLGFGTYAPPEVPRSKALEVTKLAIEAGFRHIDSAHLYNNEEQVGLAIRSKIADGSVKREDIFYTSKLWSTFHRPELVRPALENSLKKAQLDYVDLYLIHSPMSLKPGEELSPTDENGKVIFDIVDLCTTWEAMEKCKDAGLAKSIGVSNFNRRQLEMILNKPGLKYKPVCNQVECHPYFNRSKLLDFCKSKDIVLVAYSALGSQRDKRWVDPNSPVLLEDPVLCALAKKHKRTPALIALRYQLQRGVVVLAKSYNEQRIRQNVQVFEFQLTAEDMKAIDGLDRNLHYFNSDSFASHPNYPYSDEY

[2] = target: T2, Aldo-keto reductase family 1 member C2 (Homo sapiens, UniProt P52895); experiment: Inhibition of human recombinant AKR1C2-mediated NADP+-dependent oxidation of S-(+)-1,2,3,4-tetrahydro-1-naphthol
T2 sequence (P52895 whole entry): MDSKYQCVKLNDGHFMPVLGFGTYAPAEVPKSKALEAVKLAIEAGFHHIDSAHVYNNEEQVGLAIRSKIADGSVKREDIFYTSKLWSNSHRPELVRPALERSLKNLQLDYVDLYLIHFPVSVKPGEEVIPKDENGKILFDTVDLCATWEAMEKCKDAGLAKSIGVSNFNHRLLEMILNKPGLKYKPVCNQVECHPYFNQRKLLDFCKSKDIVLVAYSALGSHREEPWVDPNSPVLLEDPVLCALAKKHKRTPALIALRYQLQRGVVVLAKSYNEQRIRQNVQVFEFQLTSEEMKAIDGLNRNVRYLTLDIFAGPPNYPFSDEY

[3] = target: T3, Aldo-keto reductase family 1 member C4 (Homo sapiens, UniProt P17516); experiment: Inhibition of human recombinant AKR1C4-mediated NADP+-dependent oxidation of S-(+)-1,2,3,4-tetrahydro-1-naphthol
T3 sequence (P17516 whole entry): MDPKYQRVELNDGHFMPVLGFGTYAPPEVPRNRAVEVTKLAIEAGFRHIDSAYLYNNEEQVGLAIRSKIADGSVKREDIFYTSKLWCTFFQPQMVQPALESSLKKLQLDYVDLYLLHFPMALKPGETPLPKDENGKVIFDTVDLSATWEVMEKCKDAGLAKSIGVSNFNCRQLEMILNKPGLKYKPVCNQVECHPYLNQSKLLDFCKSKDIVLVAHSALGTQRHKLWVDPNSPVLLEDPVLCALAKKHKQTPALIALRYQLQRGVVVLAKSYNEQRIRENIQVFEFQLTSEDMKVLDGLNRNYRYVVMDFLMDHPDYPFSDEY

[4] = target: T4, Aldo-keto reductase family 1 member C1 (Homo sapiens, UniProt Q04828); experiment: Inhibition of human recombinant AKR1C1-mediated NADP+-dependent oxidation of S-(+)-1,2,3,4-tetrahydro-1-naphthol
T4 sequence (Q04828 whole entry): T2 sequence (P52895 whole entry) with V38T, H47R, V54L, S87C, M151V, H170R, L172Q

SMILES | IC50 [1] [µM] | IC50 [2] [µM] | IC50 [3] [µM] | IC50 [4] [µM]
COc1ccc2c(c1)c1c(n2C(=O)c2cccc(C(F)(F)F)c2)CCC(C(=O)O)C1 (configuration not stated) | 0.279 | 100 |  | 
COc1ccc2c(c1)c(C)c(CC(C)C(=O)NS(C)(=O)=O)n2C(=O)c1ccc(Cl)cc1 (configuration not stated) | 5.53 | 116 |  | 
COc1ccc2c(c1)c(CC(=O)NS(=O)(=O)C(F)(F)F)c(C)n2C(=O)c1ccc(Cl)cc1 |  |  | > 100 | > 100
COC(=O)Cc1cn(C(=O)c2ccc(Cl)cc2)c2ccc(OC)cc12 | 11.3 | > 100 |  | 
COc1ccc2c(c1)c(CC(=O)NS(=O)(=O)C(F)(F)F)cn2C(=O)c1ccc(Cl)cc1 |  |  | > 100 | > 100
COc1ccc2c(c1)c(CC(=O)O)c(C)n2C(=O)c1cccc(C(F)(F)F)c1 | 2.44 | 19.5 |  | 
COc1ccc2c(c1)c(CC(=O)O)cn2C(=O)c1ccc(C(F)(F)F)cc1 | 1.08 | > 100 |  | 
COc1ccc2[nH]c(C)c(CC(=O)O)c2c1 [DESCHLOROBENZOYL INDOMETHACIN] | > 100 | 100 |  | 
COc1ccc2c(c1)cc(C)n2C(=O)c1ccc(Cl)cc1 | 3.56 | 24 |  | 
COC(=O)Cc1c(C)n(C(=O)c2ccc(Cl)cc2)c2ccc(OC)cc12 | 5.67 | > 100 |  | 
COc1ccc2c(c1)c(C)c(CC(C)(C)C(=O)O)n2C(=O)c1ccc(Cl)cc1 | 0.12 | 9.82 |  | 
CCC(=O)Cc1cn(C(=O)OC)c2ccc(OC)cc12 | 22.8 | > 100 |  | 
COc1ccc2c(c1)c(C)c(CC(C)C(=O)O)n2C(=O)c1ccc(Cl)cc1 (racemic) | 0.29 | 12.3 |  | 
COc1ccc2c(c1)c(CC(=O)O)cn2C(=O)c1cccc(C(F)(F)F)c1 | 5.21 | 100 |  | 
COc1ccc(C(=O)n2c(C)c(CC(=O)O)c3cc(OC)ccc32)cc1 | 0.14 | 45.1 |  | 
COc1ccc2c(c1)c1c(n2C(=O)c2ccc(Cl)cc2)CCC(C(=O)NS(C)(=O)=O)C1 (configuration not stated) | 5.07 | > 100 |  | 
COc1ccc2c(c1)c(CC(=O)O)c(C)n2C(=O)c1ccc(C(F)(F)F)cc1 |  |  | > 100 | > 100
COC(=O)Cc1c(C)n(C(=O)c2ccc(OC)cc2)c2ccc(OC)cc12 | 7.59 | > 100 |  | 
Cc1c(CCC(=O)O)c2cc(F)ccc2n1C(=O)c1ccc(Cl)cc1 | 0.29 | 13.5 |  | 
COc1ccc2c(c1)c(CC(=O)NS(C)(=O)=O)c(C)n2C(=O)c1ccc(Cl)cc1 | 2.24 | 65.4 |  | 
COc1ccc2c(c1)c(CC(=O)O)cn2C(=O)c1ccc(F)cc1 | 4.96 | > 100 |  | 
COc1ccc2c(c1)c1c(n2C(=O)c2ccc(Cl)cc2)CC(C(=O)O)CC1 (configuration not stated) | 0.34 | 48.2 |  | 
Cc1c(CC(=O)O)c2cc(F)ccc2n1C(=O)c1cccc(C(F)(F)F)c1 | 2.23 | 7.84 |  | 
COc1ccc2c(c1)c(CCC(=O)O)c(C)n2C(=O)c1ccc(Cl)cc1 |  |  | > 100 | 
COc1ccc2c(c1)c(CC(=O)O)c(C)n2C(=O)c1ccc(F)cc1 | 0.71 | 61 |  | 
COc1ccc2c(c1)c(CC(=O)O)c(C)n2C(=O)c1ccc(C)cc1 |  |  | > 100 | > 100
CCC(=O)Cc1cn(C(=O)O)c2ccc(OC)cc12 | 2.4 | 100 |  | 
O=C(O)Cc1cn(C(=O)c2ccc(Cl)cc2)c2ccc(F)cc12 | 0.5 | 23.3 |  | 
COC(=O)Cc1c(C)n(C(=O)c2ccc(C)cc2)c2ccc(OC)cc12 | 7.54 | 43.6 |  | 
COC(=O)Cc1c(C)n(C(=O)c2ccc(C(F)(F)F)cc2)c2ccc(OC)cc12 | 15.7 | > 100 |  | 

More lines, main results first:

IC50 [1] [µM] | IC50 [2] [µM] | SMILES | IC50 [3] [µM] | IC50 [4] [µM]
3.97 | 39.9 | COc1ccc2c(c1)c(CC(=O)NS(=O)(=O)c1ccc(Br)cc1)cn2C(=O)c1ccc(Cl)cc1 |  | 
1.11 | 33 | COc1ccc2c(c1)c(CC(=O)NS(=O)(=O)c1ccc(C#N)cc1)cn2C(=O)c1ccc(Cl)cc1 |  | 
2.09 | 17.3 | COc1ccc2c(c1)c(CC(=O)NS(=O)(=O)c1ccc(C(C)=O)cc1)cn2C(=O)c1ccc(Cl)cc1 |  | 
1.94 | 19.3 | COc1ccc2c(c1)c(CC(=O)NS(=O)(=O)c1cc(C(F)(F)F)ccc1C(F)(F)F)cn2C(=O)c1ccc(Cl)cc1 |  | 
12.4 | 42.7 | COc1ccc2c(c1)c(CC(=O)NS(=O)(=O)c1ccc(C)cc1)cn2C(=O)c1ccc(Cl)cc1 |  | 
2.07 | 38.2 | COc1ccc2c(c1)c(CC(=O)NS(=O)(=O)c1ccc(C(F)(F)F)cc1)cn2C(=O)c1ccc(Cl)cc1 |  | 
1.19 | 16.8 | COc1ccc2c(c1)c(CC(=O)NS(=O)(=O)c1ccc3ccccc3c1)cn2C(=O)c1ccc(Cl)cc1 |  | 
12 | 16.7 | COc1ccc2c(c1)c(CC(=O)NS(C)(=O)=O)cn2C(=O)c1ccc(Cl)cc1 |  | 
2.5 | 40.4 | COc1ccc2c(c1)c(C)c(CCC(=O)NS(=O)(=O)c1ccc(OC(F)(F)F)cc1)n2C(=O)c1ccc(Cl)cc1 |  | 
3.73 | 15.1 | COc1ccc2c(c1)c(CC(=O)NS(=O)(=O)c1ccc(Cl)s1)cn2C(=O)c1ccc(Cl)cc1 |  | 
7.86 | 39.9 | COc1ccc2c(c1)c(CC(=O)NS(=O)(=O)c1ccc(F)cc1)cn2C(=O)c1ccc(Cl)cc1 |  | 
4.69 | 55.3 | COc1ccc2c(c1)c(C)c(CCC(=O)NS(=O)(=O)c1ccc(C(C)C)cc1)n2C(=O)c1ccc(Cl)cc1 |  | 
2.65 | 27.4 | COc1ccc2c(c1)c(C)c(CCC(=O)NS(=O)(=O)c1ccc(C(C)=O)cc1)n2C(=O)c1ccc(Cl)cc1 |  | 
5.8 | 39.9 | COc1ccc(S(=O)(=O)NC(=O)Cc2cn(C(=O)c3ccc(Cl)cc3)c3ccc(OC)cc23)cc1 |  | 
2.54 | 72.3 | COc1ccc2c(c1)c(C)c(CCC(=O)NS(=O)(=O)c1ccc3ccccc3c1)n2C(=O)c1ccc(Cl)cc1 |  | 
8.82 | 15.3 | COc1ccc2c(c1)c(CC(=O)NS(=O)(=O)c1ccccc1C)cn2C(=O)c1ccc(Cl)cc1 |  | 
3.25 | 21.1 | COc1ccc2c(c1)c(C)c(CCC(=O)NS(=O)(=O)c1ccccc1C)n2C(=O)c1ccc(Cl)cc1 |  | 
3.11 | 12.3 | COc1ccc2c(c1)c(C)c(CCC(=O)NS(=O)(=O)c1ccc(C)cc1)n2C(=O)c1ccc(Cl)cc1 |  | 
1.11 | 33.7 | COc1ccc2c(c1)c(C)c(CCC(=O)NS(=O)(=O)c1ccc(C(F)(F)F)cc1)n2C(=O)c1ccc(Cl)cc1 |  | 
2.52 |  | COc1ccc2c(c1)c(CC(=O)NS(=O)(=O)c1ccc(Oc3ccccc3)cc1)cn2C(=O)c1ccc(Cl)cc1 |  | 
2.65 | 59.4 | COc1ccc2c(c1)c(CC(=O)NS(=O)(=O)c1ccc(OC(F)(F)F)cc1)cn2C(=O)c1ccc(Cl)cc1 |  | 
6.34 | 7.9 | COc1ccc2c(c1)c(CC(=O)NS(=O)(=O)c1ccc(C(C)C)cc1)cn2C(=O)c1ccc(Cl)cc1 |  | 
